Assay results published in ChEMBL document CHEMBL2046416, “An amino-indazole scaffold with spectrum selective kinase inhibition of FLT3, PDGFRα and kit” (Bioorg Med Chem Lett, 2012).

Experiments:
BaF3 [1] = test: Antiproliferative activity against mouse BAF3 cells expressing PDGFRalpha T674M mutant gene; assay type: functional, cell-based
BaF3 [2] = test: Antiproliferative activity against mouse BAF3 cells expressing Kit […] mutant gene; assay type: functional, cell-based
BaF3 [3] = test: Antiproliferative activity against wild type mouse BAF3 cells; assay type: cell-based
MOLT-3 = test: Antiproliferative activity against human MOLT3 cells expressing FLT3 gene; assay type: functional, cell-based

Measured: EC50

O=C(NCCN1CCOCC1)c1cccc(-c2ccc3c(NC(=O)C4CC4)n[nH]c3c2)c1
> 10 µM: all assays above
